In ChEMBL document CHEMBL1201862, “PubChem BioAssay data set” (2004):
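Cells were grown in 96-well plates and exposed to each compound for 48 hours at five concentrations; endpoints were interpolated linearly between bracketing concentrations, or set to the highest concentration if not reached. GI50 is the concentration that inhibits growth by half.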 Active and inactive are the calls of the source. No stated cut-off is given here; in the data, active = GI50 up to about 1.1 µM and inactive = higher.

How the values were obtained:
Assay in all cases: DTP human tumour cell line panel, 48 h
786-0 = test system: 786-0
A498 = test system: A498
A549 = test system: A549
ACHN = test system: ACHN
CCRF-CEM = test system: CCRF-CEM
COLO 205 = test system: COLO 205
DLD-1 = test system: DLD-1
DMS-114 = test system: DMS-114
EKVX = test system: EKVX
HCC 2998 = test system: HCC 2998
HCT-116 = test system: HCT-116
HCT-15 = test system: HCT-15
HL-60 = test system: HL-60
HOP-18 = test system: HOP-18
HOP-62 = test system: HOP-62
HOP-92 = test system: HOP-92
HT-29 = test system: HT-29
IGROV-1 = test system: IGROV-1
KM-20L2 = test system: KM-20L2
KM12 = test system: KM12
LOX IMVI = test system: LOX IMVI
LXFL 529 = test system: LXFL 529
M14 = test system: M14
M19-MEL = test system: M19-MEL
Malme-3M = test system: Malme-3M
NCI-H226 = test system: NCI-H226
NCI-H23 = test system: NCI-H23
NCI-H460 = test system: NCI-H460
NCI-H522 = test system: NCI-H522
OVCAR-3 = test system: OVCAR-3
OVCAR-4 = test system: OVCAR-4
OVCAR-5 = test system: OVCAR-5
OVCAR-8 = test system: OVCAR-8
RPMI-8226 = test system: RPMI-8226
RXF 393 = test system: RXF 393
RXF 631 = test system: RXF 631
SF-268 = test system: SF-268
SF-295 = test system: SF-295
SF-539 = test system: SF-539
SK-MEL-28 = test system: SK-MEL-28
SK-MEL-2 = test system: SK-MEL-2
SK-MEL-5 = test system: SK-MEL-5
SK-OV-3 = test system: SK-OV-3
SN12C = test system: SN12C
SNB-19 = test system: SNB-19
SNB-75 = test system: SNB-75
SW-620 = test system: SW-620
TK-10 = test system: TK-10
U-251 = test system: U-251
UACC-257 = test system: UACC-257
UACC-62 = test system: UACC-62
UO-31 = test system: UO-31
XF498 = test system: XF498
CAKI-1 = test system: CAKI-1
K562 = test system: K562
MOLT-4 = test system: MOLT-4
SNB-78 = test system: SNB-78
SR = test system: SR

**Q.** For `CCCCCCCCCCCCCP(=O)(O)NCC(N)=O`, which GI50 (786-0) is on record?
**A.** > 100 µM (inactive)

**Q.** And the GI50 (A498)?
**A.** > 100 µM (inactive)

**Q.** What about the GI50 (A549) of the same molecule?
**A.** > 100 µM (inactive)

**Q.** What about the GI50 (ACHN) of the same molecule?
**A.** 28.6 µM (inactive)

**Q.** What about the GI50 (CCRF-CEM) of the same molecule?
**A.** 52.8 µM (inactive)

**Q.** What about the GI50 (COLO 205) of the same molecule?
**A.** > 100 µM (inactive)

**Q.** And the GI50 (DLD-1)?
**A.** 43.9 µM (inactive)

**Q.** What about the GI50 (DMS-114) of the same molecule?
**A.** 32.2 µM (inactive)

**Q.** And the GI50 (EKVX)?
**A.** > 100 µM (inactive)

**Q.** What about the GI50 (HCC 2998) of the same molecule?
**A.** > 100 µM (inactive)

**Q.** And the GI50 (HCT-116)?
**A.** 45.7 µM (inactive)

**Q.** What about the GI50 (HCT-15) of the same molecule?
**A.** 39.9 µM

**Q.** And the GI50 (HL-60)?
**A.** 19.7 µM (inactive)

**Q.** What about the GI50 (HOP-18) of the same molecule?
**A.** 22 µM (inactive)

**Q.** What about the GI50 (HOP-62) of the same molecule?
**A.** 37.8 µM (inactive)

**Q.** And the GI50 (HOP-92)?
**A.** 25.4 µM (inactive)

**Q.** What about the GI50 (HT-29) of the same molecule?
**A.** > 100 µM (inactive)

**Q.** What about the GI50 (IGROV-1) of the same molecule?
**A.** 41.2 µM (inactive)

**Q.** What about the GI50 (KM-20L2) of the same molecule?
**A.** 98.6 µM (inactive)

**Q.** And the GI50 (KM12)?
**A.** 85.1 µM (inactive)

**Q.** And the GI50 (LOX IMVI)?
**A.** 51.5 µM (inactive)

**Q.** And the GI50 (LXFL 529)?
**A.** 54.3 µM (inactive)

**Q.** And the GI50 (M14)?
**A.** 29.2 µM (inactive)

**Q.** And the GI50 (M19-MEL)?
**A.** 80.7 µM (inactive)

**Q.** What about the GI50 (Malme-3M) of the same molecule?
**A.** > 100 µM (inactive)

**Q.** What about the GI50 (NCI-H226) of the same molecule?
**A.** 62.4 µM (inactive)

**Q.** What about the GI50 (NCI-H23) of the same molecule?
**A.** > 100 µM (inactive)

**Q.** And the GI50 (NCI-H460)?
**A.** > 100 µM (inactive)

**Q.** And the GI50 (NCI-H522)?
**A.** 34.5 µM (inactive)

**Q.** What about the GI50 (OVCAR-3) of the same molecule?
**A.** 39 µM (inactive)

**Q.** What about the GI50 (OVCAR-4) of the same molecule?
**A.** 28.7 µM (inactive)

**Q.** And the GI50 (OVCAR-5)?
**A.** > 100 µM (inactive)

**Q.** What about the GI50 (OVCAR-8) of the same molecule?
**A.** 71.3 µM (inactive)

**Q.** And the GI50 (RPMI-8226)?
**A.** 35.1 µM (inactive)

**Q.** What about the GI50 (RXF 393) of the same molecule?
**A.** > 100 µM (inactive)

**Q.** And the GI50 (RXF 631)?
**A.** 84.3 µM (inactive)

**Q.** What about the GI50 (SF-268) of the same molecule?
**A.** 48.4 µM (inactive)

**Q.** And the GI50 (SF-295)?
**A.** 52 µM (inactive)

**Q.** What about the GI50 (SF-539) of the same molecule?
**A.** 55.7 µM (inactive)

**Q.** And the GI50 (SK-MEL-28)?
**A.** 39.1 µM (inactive)

**Q.** What about the GI50 (SK-MEL-2) of the same molecule?
**A.** 53.2 µM (inactive)

**Q.** And the GI50 (SK-MEL-5)?
**A.** 61.1 µM (inactive)

**Q.** What about the GI50 (SK-OV-3) of the same molecule?
**A.** > 100 µM (inactive)

**Q.** What about the GI50 (SN12C) of the same molecule?
**A.** 52.7 µM (inactive)

**Q.** What about the GI50 (SNB-19) of the same molecule?
**A.** 45.6 µM (inactive)

**Q.** What about the GI50 (SNB-75) of the same molecule?
**A.** 17.4 µM (inactive)

**Q.** And the GI50 (SW-620)?
**A.** 99.8 µM (inactive)

**Q.** What about the GI50 (TK-10) of the same molecule?
**A.** 58.3 µM (inactive)

**Q.** What about the GI50 (U-251) of the same molecule?
**A.** 33.5 µM (inactive)

**Q.** What about the GI50 (UACC-257) of the same molecule?
**A.** 59.4 µM (inactive)

**Q.** And the GI50 (UACC-62)?
**A.** 52.4 µM (inactive)

**Q.** And the GI50 (UO-31)?
**A.** 27.7 µM (inactive)

**Q.** What about the GI50 (XF498) of the same molecule?
**A.** 64.6 µM (inactive)

**Q.** How did the GI50 (786-0) turn out when `S=C1NC(c2ccccc2)=NC(Cc2ccccc2)(c2ccccc2)N1c1ccccc1` (stereo unspecified) was run?
**A.** > 100 µM (inactive)

**Q.** What about the GI50 (A498) of the same molecule?
**A.** > 100 µM (inactive)

**Q.** And the GI50 (A549)?
**A.** 58.9 µM (inactive)

**Q.** What about the GI50 (ACHN) of the same molecule?
**A.** 97.1 µM (inactive)

**Q.** What about the GI50 (CAKI-1) of the same molecule?
**A.** > 100 µM (inactive)

**Q.** What about the GI50 (CCRF-CEM) of the same molecule?
**A.** > 100 µM (inactive)

**Q.** And the GI50 (COLO 205)?
**A.** > 100 µM (inactive)

**Q.** And the GI50 (DLD-1)?
**A.** > 100 µM (inactive)

**Q.** And the GI50 (DMS-114)?
**A.** > 100 µM (inactive)

**Q.** And the GI50 (EKVX)?
**A.** > 100 µM (inactive)

**Q.** What about the GI50 (HCC 2998) of the same molecule?
**A.** > 100 µM (inactive)

**Q.** And the GI50 (HCT-116)?
**A.** > 100 µM (inactive)

**Q.** And the GI50 (HCT-15)?
**A.** > 100 µM

**Q.** What about the GI50 (HL-60) of the same molecule?
**A.** > 100 µM (inactive)

**Q.** And the GI50 (HOP-18)?
**A.** 97.1 µM (inactive)

**Q.** And the GI50 (HOP-62)?
**A.** 40.3 µM (inactive)

**Q.** What about the GI50 (HOP-92) of the same molecule?
**A.** > 100 µM (inactive)

**Q.** And the GI50 (HT-29)?
**A.** > 100 µM (inactive)

**Q.** What about the GI50 (IGROV-1) of the same molecule?
**A.** > 100 µM (inactive)

**Q.** What about the GI50 (K562) of the same molecule?
**A.** > 100 µM (inactive)

**Q.** What about the GI50 (KM-20L2) of the same molecule?
**A.** > 100 µM (inactive)

**Q.** And the GI50 (KM12)?
**A.** > 100 µM (inactive)

**Q.** And the GI50 (LOX IMVI)?
**A.** 96.6 µM (inactive)

**Q.** And the GI50 (LXFL 529)?
**A.** > 100 µM (inactive)

**Q.** And the GI50 (M14)?
**A.** > 100 µM (inactive)

**Q.** What about the GI50 (M19-MEL) of the same molecule?
**A.** > 100 µM (inactive)

**Q.** What about the GI50 (MOLT-4) of the same molecule?
**A.** > 100 µM (inactive)

**Q.** What about the GI50 (Malme-3M) of the same molecule?
**A.** > 100 µM (inactive)

**Q.** And the GI50 (NCI-H226)?
**A.** > 100 µM (inactive)

**Q.** And the GI50 (NCI-H23)?
**A.** > 100 µM (inactive)

**Q.** What about the GI50 (NCI-H460) of the same molecule?
**A.** > 100 µM (inactive)

**Q.** And the GI50 (OVCAR-3)?
**A.** > 100 µM (inactive)

**Q.** And the GI50 (OVCAR-4)?
**A.** 42.1 µM (inactive)

**Q.** And the GI50 (OVCAR-5)?
**A.** > 100 µM (inactive)

**Q.** And the GI50 (OVCAR-8)?
**A.** 41.4 µM (inactive)

**Q.** What about the GI50 (RPMI-8226) of the same molecule?
**A.** > 100 µM (inactive)

**Q.** What about the GI50 (RXF 393) of the same molecule?
**A.** 68.2 µM (inactive)

**Q.** And the GI50 (RXF 631)?
**A.** > 100 µM (inactive)

**Q.** And the GI50 (SF-268)?
**A.** > 100 µM (inactive)

**Q.** What about the GI50 (SF-295) of the same molecule?
**A.** 37.9 µM (inactive)

**Q.** And the GI50 (SF-539)?
**A.** > 100 µM (inactive)

**Q.** What about the GI50 (SK-MEL-28) of the same molecule?
**A.** > 100 µM (inactive)

**Q.** What about the GI50 (SK-MEL-5) of the same molecule?
**A.** > 100 µM (inactive)

**Q.** And the GI50 (SN12C)?
**A.** > 100 µM (inactive)

**Q.** And the GI50 (SNB-19)?
**A.** 45.4 µM (inactive)

**Q.** And the GI50 (SNB-75)?
**A.** 19.7 µM (inactive)

**Q.** And the GI50 (SNB-78)?
**A.** > 100 µM (inactive)

**Q.** What about the GI50 (SR) of the same molecule?
**A.** > 100 µM (inactive)

**Q.** And the GI50 (SW-620)?
**A.** > 100 µM (inactive)

**Q.** What about the GI50 (TK-10) of the same molecule?
**A.** > 100 µM (inactive)

**Q.** And the GI50 (UACC-257)?
**A.** > 100 µM (inactive)

**Q.** And the GI50 (UACC-62)?
**A.** > 100 µM (inactive)

**Q.** What about the GI50 (UO-31) of the same molecule?
**A.** > 100 µM (inactive)
